Assay results from ChEMBL document CHEMBL1201862, “PubChem BioAssay data set” (2004).
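Tested at 5 concentrations; 48 h exposure; 96-well plates; endpoints linearly interpolated, else capped at highest concentration. Here, GI50 denotes the concentration required for 50% inhibition of growth.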 The source made the active and inactive calls. No stated cut-off is given here; in the data, active = GI50 up to about 1.1 µM and inactive = higher.

Experiments:
Experiment in all cases: growth of human tumour cells (NCI), 48 h
[1] = tested on: BT-549
[2] = tested on: CCRF-CEM
[3] = tested on: COLO 205
[4] = tested on: EKVX
[5] = tested on: MDA-MB-231
[6] = tested on: MDA-N
[7] = tested on: NCI-H226
[8] = tested on: NCI/ADR-RES
[9] = tested on: OVCAR-4
[10] = tested on: OVCAR-5
[11] = tested on: PC-3
[12] = tested on: SK-MEL-28
[13] = tested on: SK-MEL-2
[14] = tested on: SK-MEL-5
[15] = tested on: SN12C
[16] = tested on: SNB-19
[17] = tested on: SW-620
[18] = tested on: T47D
[19] = tested on: UACC-257
[20] = tested on: UO-31

Measured: GI50

CSc1c(CC(=O)Nc2ccc(Cl)cc2)n(Cc2ccccc2)c2ccccc12
inactive: [1] 15.1 µM | [2] 40.3 µM | [3] 44.6 µM | [4] 12.1 µM | [5] 14.8 µM | [6] 76.4 µM | [7] 20.8 µM | [8] 19.4 µM | [9] 11.7 µM | [10] 29.6 µM | [11] 11 µM | [12] > 100 µM | [13] 14.2 µM | [14] 29.9 µM | [15] 32 µM | [16] 46.9 µM | [17] > 100 µM | [18] 12.1 µM | [19] 24.8 µM | [20] 34.3 µM

O/N=C(/CC(O)(C(F)(F)F)C(F)(F)F)c1ccccc1
inactive: [1] > 10 µM | [2] > 10 µM | [3] > 10 µM | [4] > 10 µM | [5] > 10 µM | [6] > 10 µM | [7] > 10 µM | [8] > 10 µM | [9] > 10 µM | [10] > 10 µM | [11] > 10 µM | [12] > 10 µM | [13] > 10 µM | [14] 2.1 µM | [15] > 10 µM | [16] > 10 µM | [17] > 10 µM | [18] > 10 µM | [19] > 10 µM

CC1=C(CO)C(=O)O[C@@H]([C@@H](C)[C@H]2CC[C@H]3[C@@H]4C[C@@H](O)[C@@]5(O)CC=CC(=O)[C@]5(C)[C@H]4CC[C@]23C)C1 [JABOROSALACTONE D]
inactive: [1] 27.7 µM | [2] 33.2 µM | [3] 43.1 µM | [4] 49.2 µM | [5] 31.3 µM | [6] 45 µM | [7] 35.8 µM | [8] 21.1 µM | [9] 32.2 µM | [10] > 100 µM | [11] 47 µM | [12] 42.1 µM | [13] 43.7 µM | [14] 32.6 µM | [15] 42.4 µM | [16] 46.5 µM | [17] 21.7 µM | [18] 58.1 µM | [19] > 100 µM

COc1cccc(OC)c1NC(=O)C(=O)Nn1c(NNC(=O)c2ccncc2)nc2ccccc2c1=O
inactive: [1] > 100 µM | [2] > 100 µM | [4] 84.9 µM | [5] > 100 µM | [6] > 100 µM | [7] > 100 µM | [8] > 100 µM | [9] > 100 µM | [10] > 100 µM | [11] > 100 µM | [12] > 100 µM | [13] > 100 µM | [14] > 100 µM | [15] > 100 µM | [16] > 100 µM | [17] > 100 µM | [18] > 100 µM | [19] > 100 µM | [20] > 100 µM

CSc1nc(Cl)c2c(n1)Sc1nc3ccccc3n1N=C2
inactive: [1] 18.6 µM | [2] 14.9 µM | [3] 23 µM | [5] 23.9 µM | [6] 22 µM | [7] 62.7 µM | [8] 21.7 µM | [9] 29.4 µM | [10] 28.9 µM | [11] 22.3 µM | [12] 40.8 µM | [13] 50.4 µM | [14] 21.3 µM | [15] 37.8 µM | [16] > 100 µM | [17] 13.2 µM | [18] 23.5 µM | [19] 35.8 µM | [20] 18.5 µM

O=C1C2CCCCC2C(=O)N1n1c(Cc2ccc(Cl)cc2)n[nH]c1=O (stereo not given)
inactive: [1] > 100 µM | [2] > 100 µM | [3] > 100 µM | [4] > 100 µM | [5] > 100 µM | [6] > 100 µM | [7] > 100 µM | [8] > 100 µM | [9] > 100 µM | [10] > 100 µM | [11] > 100 µM | [13] > 100 µM | [14] > 100 µM | [15] > 100 µM | [16] > 100 µM | [17] > 100 µM | [18] > 100 µM | [19] > 100 µM | [20] > 100 µM

CN(C)c1ccc(-c2ccc(N(C)C)c3n[se]nc23)c2n[se]nc12
inactive: [1] > 100 µM | [2] > 100 µM | [4] > 100 µM | [5] > 100 µM | [6] > 100 µM | [7] > 100 µM | [8] > 100 µM | [9] > 100 µM | [10] > 100 µM | [11] > 100 µM | [12] > 100 µM | [13] > 100 µM | [14] > 100 µM | [15] > 100 µM | [17] > 100 µM | [18] > 100 µM | [19] > 100 µM | [20] > 100 µM

CC(C)[C@@H]1CC[C@@H](C)C[C@H]1OC(=O)c1c2n(c3ccccc13)C[C@H]1OC(C)(C)O[C@@H]21
inactive: [1] 61.8 µM | [2] 4.22 µM | [3] 72.4 µM | [4] 6.81 µM | [5] 23 µM | [6] 19.7 µM | [7] 22.3 µM | [8] 13.2 µM | [9] 20.9 µM | [10] > 100 µM | [11] 5.71 µM | [12] 46.7 µM | [13] > 100 µM | [14] 5.5 µM | [15] 24.9 µM | [17] 16.6 µM | [18] 15.2 µM | [19] 6.95 µM | [20] 96.2 µM

N#Cc1c(C#N)c(-c2ccccc2)n(-c2ccccc2)c1N
inactive: [1] 48.4 µM | [2] 87.5 µM | [3] > 100 µM | [4] 73.8 µM | [5] > 100 µM | [6] > 100 µM | [7] 72.4 µM | [8] > 100 µM | [9] 56.2 µM | [10] > 100 µM | [11] > 100 µM | [13] 99.1 µM | [14] 18.9 µM | [15] > 100 µM | [16] 30.4 µM | [17] > 100 µM | [18] 6.52 µM | [19] > 100 µM | [20] 12.8 µM

Nc1ccc2ccc(-c3ccc[nH]3)nc2n1
inactive: [1] > 100 µM | [3] > 100 µM | [4] > 100 µM | [5] > 100 µM | [6] > 100 µM | [7] > 100 µM | [8] > 100 µM | [9] > 100 µM | [10] > 100 µM | [11] > 100 µM | [12] > 100 µM | [13] > 100 µM | [14] > 100 µM | [15] > 100 µM | [16] > 100 µM | [17] > 100 µM | [18] > 100 µM | [19] > 100 µM | [20] > 100 µM
